Assay results published in patent US20010044463A1, “Methods for controlling gram negative bacteria in mammals” (priority 1997, published 2001).

How the values were obtained:
H. pylori ATCC 43504 = assay: Minimum Inhibitory Concentration (MIC) blood agar plate growth inhibition; format: cell-based, Helicobacter pylori
Procedure: Subsequent dilutions were made in ethanol immediately prior to use. […] Subsequent dilutions were made in BHI medium (Brain heart infusion broth, Difco #0037-07-0) immediately prior to use.
(§1) Blood agar base (BAB) was prepared containing 1.5% agar and autoclaved. 20 ml samples of autoclaved BAB were poured into 50 mL tubes and placed in a 56° C. water bath.
The mixed media preparation was poured into a petri dished and allowed to solidify.
(§2) Prior to inoculation of petri plates, bacteria or cultures were examined for morphology under a phase microscope to confirm motility and physical characteristics, e.g., spiral shaped. The organisms were washed off the plate into PBS (Phosphate buffered saline) (80.0 g NaCl, 2.0 g KCl, 2.4 g KH2PO4 11.5 g Na2HPO4 or 24.4 g Na2HPO4/2H2O per 1 liter deionized water, pH 7.2, sterilized by autoclaving) and diluted into BHI at a concentration of 10^8/ml (O.D. of 0.3 units diluted 1:30). Ten microliters of solution containing 10^6 organisms were spread onto a petri plate and grown under microaerophilic conditions for 3 days unless specified. Control organisms were grown under microaerophilic conditions.
(§3) Inhibition of growth was determined by the amount of colonies present within the petri plate. The following factors were used for growth inhibition: ±=0-20 colonies, +=20-50 colonies, ++=50-200 colonies and +++=200+ colonies.

[1] = system: H. pylori (urease positive) ATCC Number 51652; assay: as above; format: cell-based, Helicobacter pylori; conditions: Table XVII, Blood agar base + 3% sheep blood
Procedure: (§4) Monensin (Sigma Cat. No. M-5273) was dissolved in 100% absolute ethanol (AAPER Alcohol and Chemical Co.) at a concentration of 20 mg/ml. Subsequent dilutions were made in ethanol immediately prior to use. Nigericin (Sigma Cat. No. N-7143) was dissolved in DMSO at 2 mg/ml. Subsequent dilutions were made in BHI medium (Brain heart infusion broth, Difco #0037-07-0) immediately prior to use.
as §1
(§5) 100 μl of a drug (final concentration equivalent to 1:200 of original concentration) and 1.2 ml of sheep blood (Colorado Senun Company # CS-1112) (blood diluted in a 1:1 buffer providing a 3% concentration of blood per 20 ml medium sample) were added to 20 ml sample of media and mixed. The mixed media preparation was poured into a petri dished and allowed to solidify.
as §2, §3

Staph ATCC 14775 = assay: Blood agar plate growth inhibition, control organism; format: cell-based; conditions: Table XV, Non microaerophilic conditions
Procedure: as §4, §1, §5
as §2, with “Control organisms were grown under microaerophilic conditions.” left out
as §3

[2] = Tables IX-XIII, final drug concentration 0.098 μg/ml
[3] = Tables IX-XIII, final drug concentration 0.195 μg/ml
[4] = Tables IX-XIII, final drug concentration 0.39 μg/ml
[5] = Tables IX-XIII, final drug concentration 0.78 μg/ml
[6] = Tables IX-XIII, final drug concentration 1.56 μg/ml
[7] = Tables IX-XIII, final drug concentration 3.125 μg/ml
[8] = Tables IX-XIII, final drug concentration 6.25 μg/ml
[9] = Tables IX-XIII, final drug concentration 12.5 μg/ml
[10] = Tables IX-XIII, final drug concentration 25 μg/ml
[11] = Tables IX-XIII, final drug concentration 50 μg/ml
[12] = Tables IX-XIII, final drug concentration 100 μg/ml
[13] = final drug concentration 0.1 ng/ml
[14] = final drug concentration 1 ng/ml
[15] = final drug concentration 10 ng/ml
[16] = final drug concentration 100 ng/ml
[17] = final drug concentration 1 μg/ml
[18] = final drug concentration 10 μg/ml

Compound | MIC (H. pylori ATCC 43504; Tables IX-XIII) | growth (amount of colonies present within the petri plate) (H. pylori ATCC 43504; [2]) | growth (amount of colonies present within the petri plate) (H. pylori ATCC 43504; [3]) | growth (amount of colonies present within the petri plate) (H. pylori ATCC 43504; [4]) | growth (amount of colonies present within the petri plate) (H. pylori ATCC 43504; [5]) | growth (amount of colonies present within the petri plate) (H. pylori ATCC 43504; [6]) | growth (amount of colonies present within the petri plate) (H. pylori ATCC 43504; [7]) | growth (amount of colonies present within the petri plate) (H. pylori ATCC 43504; [8]) | growth (amount of colonies present within the petri plate) (H. pylori ATCC 43504; [9]) | growth (amount of colonies present within the petri plate) (H. pylori ATCC 43504; [10]) | growth (amount of colonies present within the petri plate) (H. pylori ATCC 43504; [11]) | growth (amount of colonies present within the petri plate) (H. pylori ATCC 43504; [12]) | growth (amount of colonies present within the petri plate) [1, 13] | growth (amount of colonies present within the petri plate) [1, 14] | growth (amount of colonies present within the petri plate) [1, 15] | growth (amount of colonies present within the petri plate) [1, 16] | growth (amount of colonies present within the petri plate) [1, 17] | growth (amount of colonies present within the petri plate) [1, 18] | other results
26-O Phenylmonensin [Monensin phenyl carbamate] | MIC = 1.56 μg/ml | (+++) (+++=200+ colonies) | (+++) (+++=200+ colonies) | (++) (++=50-200 colonies) | (++) (++=50-200 colonies) | (+) small colonies (+=20-50 colonies) | (±) few small colonies (±=0-20 colonies) | No growth | No growth | No growth | No growth | No growth |  |  |  |  |  |  | 
CNc1ccc2oc(C[C@H]3O[C@@]4(CC[C@H]3C)O[C@H]([C@H](C)C(=O)c3ccc[nH]3)[C@H](C)C[C@H]4C)nc2c1C(=O)O [A23187] |  |  |  |  |  |  |  |  |  |  |  |  | (+++) (+++=200+ colonies) | (+++) (+++=200+ colonies) | (+++) (+++=200+ colonies) | (+++) (+++=200+ colonies) | No growth | No growth | 
CC[C@@]1([C@@H]2O[C@@H]([C@H]3O[C@@](O)(CO)[C@H](C)C[C@@H]3C)C[C@@H]2C)CC[C@H]([C@]2(C)CC[C@]3(C[C@H](O)[C@@H](C)[C@@H]([C@@H](C)[C@@H](OC)[C@H](C)C(=O)OCc4ccccc4)O3)O2)O1 [Benzyl Monensin, monensin benzyl ester] | MIC = 25 μg/ml | (+++) (+++=200+ colonies) | (+++) (+++=200+ colonies) | (+++) (+++=200+ colonies) | (+++) (+++=200+ colonies) | (+++) (+++=200+ colonies) | (+++) (+++=200+ colonies) | (+++) (+++=200+ colonies) | (++) (++=50-200 colonies) | (±) (±=0-20 colonies) | (±) (±=0-20 colonies) | (±) (±=0-20 colonies) |  |  |  |  |  |  | 
CCC1(C2OC(C3OC(O)(COC(=O)NC(C)NC(=O)OCC4c5ccccc5-c5ccccc54)C(C)CC3C)CC2C)CCC(C2(C)CCC3(CC(O)C(C)C(C(C)C(OC)C(C)C(=O)O)O3)O2)O1 (centres unmarked) [Fmoc-Ala-monensin, 26-O-[1-(Fmoc-amino)ethylcarbamoyl] monensin] | MIC = 6.25 μg/ml | (+++) (+++=200+ colonies) | (+++) (+++=200+ colonies) | (+++) (+++=200+ colonies) | (+++) (+++=200+ colonies) | (+++) (+++=200+ colonies) | (+++) (+++=200+ colonies) | (±) (±=0-20 colonies) | No growth | No growth | No growth | No growth |  |  |  |  |  |  | 
C[C@H](CCC(=O)O)C[C@H](C)C[C@H](C)C(=O)/C=C(\O)[C@H](C)C[C@H](C)C/C=C/[C@@H](C)[C@@H](O)[C@@H](C)[C@@H](O)C[C@@H]1CC[C@@](C)([C@H]2CC[C@@](C)([C@@H](C)O)O2)O1 [Ionomycin, ionomycin] |  |  |  |  |  |  |  |  |  |  |  |  | (+++) (+++=200+ colonies) | (+++) (+++=200+ colonies) | (+++) (+++=200+ colonies) | (+++) (+++=200+ colonies) | (+++) (+++=200+ colonies) | (+++) (+++=200+ colonies) | 
CC[C@@H](C(=O)[C@@H](C)[C@@H](O)[C@H](C)CCc1ccc(C)c(O)c1C(=O)O)[C@H]1O[C@](CC)([C@H]2CC[C@](O)(CC)[C@H](C)O2)C[C@@H]1C [Lasalocid, lasalocid] |  |  |  |  |  |  |  |  |  |  |  |  | (+++) (+++=200+ colonies) | (+++) (+++=200+ colonies) | (+++) (+++=200+ colonies) | (+++) (+++=200+ colonies) | (+++) (+++=200+ colonies) | (+++) (+++=200+ colonies) | growth (amount of colonies present within the petri plate) (H. pylori ATCC 43504; Table VII, urease positive, final drug concentration 10 μg/ml): (+++) (+++=200+ colonies); growth (amount of colonies present within the petri plate) (Staph ATCC 14775; [15]): (+++) (+++=200+ colonies); growth (amount of colonies present within the petri plate) (Staph ATCC 14775; [16]): (+++) (+++=200+ colonies); growth (amount of colonies present within the petri plate) (Staph ATCC 14775; [17]): (+++) (+++=200+ colonies); growth (amount of colonies present within the petri plate) (Staph ATCC 14775; [18]): No growth
CCC1(C2OC(C3OC(O)(COC(=O)Nc4cccnc4)C(C)CC3C)CC2C)CCC(C2(C)CCC3(CC(O)C(C)C(C(C)C(OC)C(C)C(=O)O)O3)O2)O1 (centres unmarked) [Monensin pyridyl carbamate, 26-O-(3-pyridylcarbamoyl) monensin] | MIC = 3.12 μg/ml | (+++) (+++=200+ colonies) | (+++) (+++=200+ colonies) | (+++) (+++=200+ colonies) | (+++) (+++=200+ colonies) | (++) (++=50-200 colonies) | (±) (±=0-20 colonies) | No growth | No growth | No growth | No growth | No growth |  |  |  |  |  |  | 
